In patent US11357774B2, “Use of a quinoline sulfonyl compound for treatment of inflammation, inflammatory disorders, autoimmune disorders and malaria” (priority 2019, dated 2022):

Key:
[1] = test system: IL-1β, TNF-α, IL-6 and IL-8 secretion in THP-1 cells; test: Cytokine secretion in LPS-stimulated THP-1 cells (ELISA); format: cell-based, human; settings: THP-1, LPS 5 μg/mL, 6 hours
Procedure: For comparison, BTZ (6 nM), CFZ (1 nM), and DEX (2 μM) were also included. *, **, and *** are p<0.05, p<0.01, and p<0.001, respectively, which denote a significant difference from the LPS-only group. The mean±SEM (n=3) values were determined by a Dunnett's test.
(§1) The enzyme-linked immunosorbent assay (ELISA) is a quantitative measurement based on sandwich-based enzyme linking, using a protein-specific capture antibody to determine the levels of single or multiple chemokines and cytokines.
Data shown in FIG. 11 are the results of experiments carried out to investigate VR23's effect on the levels of inflammatory cytokines. […] For comparison, BTZ (6 nM), CFZ (1 nM) and DEX (2 μM) were also included. The levels of cytokine secreted in cell culture supernatants were measured by a single-analyte ELISA. The IC50 value of VR23 is 3 μM and the concentrations of BTZ, CFZ and DEX used are their respective IC50 values.

[2] = test system: IL-6 secretion in SW-982 synovial cells; test: IL-6 secretion in IL-1β-stimulated SW-982 synovial cells (ELISA); format: cell-based, human; settings: SW-982, IL-1β 1 ng/mL, 6 hours; VR23 10 μM, HCQ 60 μM
Procedure: The mean±SEM (n=2) values were determined by a Dunnett's test.
as §1
The measurement was carried out with a single-analyte ELISA. […] While not wishing to be limited by theory, cytokine IL-6 is strongly implicated to the progress of rheumatoid arthritis^29.

[3] = test system: SW-982 synovial cell line; test: Sulforhodamine B (SRB) assay, IC50 on SW-982 cells; format: cell-based; settings: Homo sapiens, SW982, 48 h
Procedure: (§2) The sulforhodamine B (SRB) assay^21 was used to determine the drug concentration that half of the cell growth/viability is inhibited (IC50). Cells were cultured in 96-well plates, with 5,000 cells in 100 μL of culture medium per well. The rest of the protocol was the same as described previously^22,23.
(§3) Data shown in Table 1 are IC50 values of VR23 and other compounds, which were determined using sulforhodamine B (SRB) assays on immunologically relevant cells (THP-1, SW-982 and PBMC). […] Two well-known proteasome inhibitors, BTZ and CFZ, were included for comparison since VR23 is also a proteasome inhibitor, albeit targeting different subunits^2. The widely used anti-inflammatory DEX was included, also for comparison.
(§4) THP-1, SW982 and PBMC cells (5,000 cells/well) were treated with each compound for 48 hours. The IC50, the drug concentration reducing cell growth/viability by 50%, was determined by a dose-response four-parameter curve (generated with GraphPad Prism V. 4.02) formed by 10 two-fold dilutions (n=3).

[4] = test system: IL-6 secretion in HFLS-RA cells; test: IL-6 secretion in stimulated HFLS-RA cells (ELISA); format: cell-based, human; settings: 6 hours
Procedure: The mean±SEM (n=3) values were determined by a Dunnett's test.
The values presented are the mean±SEM (n=2).
as §1
This finding was extended to human cells relevant to autoimmune diseases. Human fibroblast-like synoviocytes (HFLS) are present in the synovial fluid of joint capsules and produce harmful molecules that contribute to joint destruction and the exacerbation of the disease in rheumatoid arthritis patients. […] The cells were then stimulated with IL-1β (FIG. 16) or LPS (FIG. 17), in the absence (control; IL-1β only) or presence of VR23 or HCQ. HCQ was included for comparison because it is often used to treat rheumatoid arthritis. […] For “VR23 only” samples, 5 μM VR23 was used. Fifty thousand HFLS cells per mL were used for the experiment. Cytokine levels in cell culture supernatants were determined by a single-analyte ELISA. […] Fifty thousand HFLS cells per mL were used for the experiment. The cytokine secretion was measured in cell culture supernatants by a single-analyte ELISA.

[5] = test system: human fibroblast-like synoviocytes from rheumatoid arthritis patients (HFLS-RA); test: Viability test, HFLS-RA cells; format: cell-based; settings: 6 hours, IL-1β 10 ng/mL, VR23 1.25-5.0 μM, HCQ 7.5-30 μM
Procedure: The values presented are the mean±SEM (n=3).
The CCK-8 assay was used to count viable cells under the various treatment conditions. Briefly, cells were cultured in 11 columns of a 96-well clustered plate, with 5,000 cells in 100 μL of culture medium per well, excluding one column for a media-only control. The plate was incubated overnight at 37° C. in the humidified conditions, followed by treatment with test compounds diluted in the culture medium (10 μL). Each column was treated with a different condition so that each treatment could have 8 repeats. […] The absorbance was measured using an automatic plate reader (Synergy H4 Hybrid Multi-Mode Microplate Reader, BioTek, Montreal, Canada) at 450 nm wavelength. The cell viability of each treatment sample was determined by using the following equation (%)=(Abstrtmt-Absmedia)/(AbsuT-Absmedia)*100, where Abstrtmt is the absorbance value of cells with the various treatment conditions; Absmedia is the absorbance of the well containing media only; AbsuT is the absorbance of the wells with untreated cells.
This finding was extended to human cells relevant to autoimmune diseases. […] Cytokine levels in cell culture supernatants were determined by a single-analyte ELISA. […] The cytokine secretion was measured in cell culture supernatants by a single-analyte ELISA.

[6] = test system: CQ-sensitive P. falciparum 3D7; test: Anti-parasitic assay (SYBR Green I), 3D7 strain; format: cell-based; settings: Plasmodium falciparum, 3D7, 48 h
Procedure: The CQ-resistant P. falciparum ItG and the CQ-sensitive 3D7 strains were maintained and assays carried out as described previously^25. Briefly, P. falciparum strains were maintained in RPMI 1640 culture medium supplemented with 10% human serum, 25 mM HEPES, gentamicin, and 50 μM of hypoxanthine. The anti-parasitic assay was carried out as described previously^25. Briefly, a compound gradient was generated across a 96-well assay plate; a constant number of parasites added in 50 μL of the culture medium; allowed to grow for 48 hours; and followed by the measurement of DNA amounts (i.e., fluorescence) using SYBR Green I. The IC50 value is the 50% point between alive and dead for which a three-parameter fit was used.
VR23 is a derivative of CQ; a well-known anti-malarial drug. […] ItG and […] P. falciparum strains are CQ-resistant and CQ-sensitive strains, respectively. IC50 values were calculated by S.E.M (Table 2).

[7] = test system: PBMC cells; test: Sulforhodamine B (SRB) assay, IC50 on PBMC; format: cell-based, human
Procedure: as §2, §3, §4

O=[N+]([O-])c1ccc(S(=O)(=O)N2CCN(c3ccnc4cc(Cl)ccc34)CC2)c([N+](=O)[O-])c1 [VR23, 7-chloro-4-(4-(2,4-dinitrophenylsulfonyl)piperazin-1-yl)quinoline] was tested, and the “level of IL-6 in response to LPS” value [1] was “especially effective on reducing the level of IL-6”, the “cytokine secretion, dose dependence” value ([1]; VR23 0.5, 1.0, 2, 3, 4 or 6 μM) was “decreased cytokine secretion in a dose dependent manner” and the “levels of inflammatory cytokines IL-1β, TNF-α, IL-6, IL-8” value ([1]; VR23 0.5-6 μM, BTZ 6 nM, CFZ 1 nM, DEX 2 μM) was “substantial and comparable anti-inflammatory activities”. The “secretion of IL-6” value [2] was “substantially reduced the secretion of IL-6”, the IC50 [3] was 4.33 ± 0.7 µM and the “IL-6 secretion, dose dependence” value ([4]; HFLS-RA, IL-1β 10 ng/mL, VR23 2.5-10 μM, HCQ 15 or 30 μM) was “decreases in a dose dependent manner”. For the same compound, the “secretion of IL-6” value ([4]; HFLS-RA, LPS 100 ng/mL, 5 or 10 μM) was “decreased substantially”, the “level of IL-6 secretion, HFLS-RA versus HFLS-N” value ([4]; IL-1β 10 ng/mL, VR23 5 μM) was “reduces the level of IL-6 secretion more effectively on HFLS-RA than HFLS-N” and the “IL-6 reduction, 5 μM VR23 versus 30 μM HCQ” value ([4]; synovial cells from rheumatoid arthritis patients, IL-1β or LPS) was “significantly more effective”. For the same compound, the cell viability [5] was “none of the conditions examined significantly affected the viability”, the IC50 [6] was 0.416 µM and the IC50 ([7]; 48 hours) was 3.14 ± 0.26 µM. For the same compound, the IC50 ([7]; Homo sapiens, 48 h) was 3 µM.
